Experimental data reported in paper PMC9965125, “New NSAID Conjugates as Potent and Selective COX-2 Inhibitors: Synthesis, Molecular Modeling and Biological Investigation” (Molecules, 2023).

What was measured:
gastric mucosa = settings: both, albino, mouse, in vivo, 3 days; for % Incidence of Ulcer Divided by 10 / Average Severity of Ulcer / Average of Ulcer Number / Number of Animals with Ulcer: po, 10 mg/kg
Experimental: The ulcerogenic liability was determined in albino mice obeying the standard method.
Animals of either sex (pregnant females were excluded) weighing 20 –25 g were divided into 8 groups of 6 animals each. The animals fasted 18 h before drug administration.
80 administered orally for three successive days to fasted animals at a dose of 10 mg kg-1 (animal […]
The control group animals were given water only with few drops of Tween 80. The animals were sacrificed by cervical dislocation and the stomach was removed, opened along the greater curvature and rinsed with saline. The gastric mucosa was examined with a magnifying lens (10x) for the presence of lesions and ero sions. The ulcer index was calculated (Table 4) and the degree of ulcerogenic effect was expressed in terms of.
1. The percentage incidence of ulcers divided by 10.
2. Average number of ulcers per stomach.
3. Average severity of ulcers.
The ulcer index is the value that resulted from the sum of the above three values. […]

[1] = system: acetic acid-induced abdominal writhing; experiment: acetic acid-induced abdominal writhing assay (peripheral analgesic); type: in vivo, mice; settings: for % Inhibition/Protection / Writing Reflex ± SE: 10 mg/kg indomethacin mol equivalent i.p.; for Potency: % inhibition/protection compared to indomethacin; for Writing Reflex ± SE: number of writhing counted for 30 min
[2] = system: LPS-stimulated RAW264.7 macrophages; experiment: NO production of LPS-induced RAW264.7 (Griess method); type: cell-based; settings: 40 μg/mL; LPS 10 ng/mL; LPS only 22 μM, baseline 12.8 μM
TNF-α mRNA = settings: 40 μg/mL; in comparison to LPS-stimulated cells only
Experimental: (§1) For this purpose, the mRNA levels of IL-6, TNF-α, and iNOS were measured using real-time qPCR (RT-qPCR).
(§2) Treatment of LPS-stimulated RAW264.7 macrophages was done with 40 µg/mL of the isolated
(§3) Evaluation of inflammatory mRNA expression levels
(§4) Inflammatory mRNA expression levels were evaluated using RT-qPCR (Applied Biosystems, CA, USA). Total RNA was extracted by lysing RAW264.7 cells using Qiazol Lysis Reagent. The extracted RNA was used to synthesize cDNA using RevertAid First Strand cDNA synthesis kit according to manufacturer’s protocol. The cDNA was then added with forward and reverse
(§5) primers, nuclease free water and maxima SYBR green mix (Thermo Fisher Scientific, MA, USA).
(§6) The inflammation-related genes of mRNA expression levels are as follows: IL-6, TNF-α, and
(§7) iNOS. All expression was normalized to GAPDH (endogenous control) and relative fold mRNA
(§8) expression levels were calculated using the comparative 2 −ΔΔCT method. The PCR reaction consists
(§9) of initiation stage at 95 °C for 10 min, after that 40 PCR cycles of d enaturation stage for 15 s at 95
(§10) °C and annealing and extension for 1 min at 60 °C.

IL-6 mRNA = settings: 40 μg/mL; in comparison to LPS-stimulated cells only
Experimental: as §1, §2, §3, §4, §5, §6, §7, §8, §9, §10

iNOS mRNA = settings: 40 μg/mL; in comparison to LPS-stimulated cells only
Experimental: as §1, §2, §3, §4, §5, §6, §7, §8, §9, §10

C#CCOC(=O)C(C)c1ccc(CC(C)C)cc1 (centres unmarked) [Compound 3, Prop-2-yn-1-yl 2-(4-isobutylphenyl) Propanoate]
Ulcer Index (gastric mucosa): 4.33 | % Incidence of Ulcer Divided by 10 (gastric mucosa): 3.33 | Average Severity of Ulcer (gastric mucosa): 0.67 | Average of Ulcer Number (gastric mucosa): 0.33 | Number of Animals with Ulcer (gastric mucosa): 2/6 | % Inhibition/Protection [1]: 71.8% | Potency [1]: 100.0% | Writing Reflex ± SE [1]: 11.3 ± 0.9

Cc1ccc(-n2cc(COC(=O)C(C)c3ccc(CC(C)C)cc3)nn2)cc1 (centres unmarked) [Compound 5d, (1-(p-Tolyl)-1H-1,2,3-triazol-4-yl)methyl 2-(4-isobutylphenyl)propanoate]
LPS-stimulated NO production (nitrite) [2]: 1.45 ± 1.3 µM | Ulcer Index (gastric mucosa): 0 | % Incidence of Ulcer Divided by 10 (gastric mucosa): 0 | Average Severity of Ulcer (gastric mucosa): 0 | Average of Ulcer Number (gastric mucosa): 0 | Number of Animals with Ulcer (gastric mucosa): 0 | reduction in TNF-α mRNA levels (TNF-α mRNA): 72% | reduction in IL-6 mRNA levels (IL-6 mRNA): 66.2% | % Inhibition/Protection [1]: 82.5% | Potency [1]: 114.9% | Writing Reflex ± SE [1]: 7.0 ± 1.3 | reduction in iNOS mRNA levels (iNOS mRNA): 59%

COc1ccccc1-n1cc(COC(=O)C(C)c2ccc(CC(C)C)cc2)nn1 (centres unmarked) [Compound 5e, (1-(2-Methoxyphenyl)-1H-1,2,3-triazol-4-yl)methyl 2-(4-isobutylphenyl)propanoate]
LPS-stimulated NO production (nitrite) [2]: insignificant decrease | Ulcer Index (gastric mucosa): 0 | % Incidence of Ulcer Divided by 10 (gastric mucosa): 0 | Average Severity of Ulcer (gastric mucosa): 0 | Average of Ulcer Number (gastric mucosa): 0 | Number of Animals with Ulcer (gastric mucosa): 0 | reduction in TNF-α mRNA levels (TNF-α mRNA): 86% | reduction in IL-6 mRNA levels (IL-6 mRNA): 82% | % Inhibition/Protection [1]: 63.3% | Potency [1]: 88.2% | Writing Reflex ± SE [1]: 14.7 ± 1.6 | reduction in iNOS mRNA levels (iNOS mRNA): 42%
